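Grown in 96-well plates, cells were treated for 48 hours with each compound at five concentrations. Insufficient inhibition: endpoint recorded as highest concentration tested. At the TGI there is no net growth.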
Legend:
Assay in all cases: DTP human tumour cell line panel, 48 h
U251 CNS = system: U251 CNS
UO-31 renal = system: UO-31 renal
SF-268 CNS = system: SF-268 CNS
NCI/ADR-RES ovarian = system: NCI/ADR-RES ovarian
MALME-3M melanoma = system: MALME-3M melanoma
UACC-257 melanoma = system: UACC-257 melanoma
IGROV1 ovarian = system: IGROV1 ovarian
SK-MEL-5 melanoma = system: SK-MEL-5 melanoma
SK-OV-3 ovarian = system: SK-OV-3 ovarian
DU-145 prostate = system: DU-145 prostate
COLO 205 colon = system: COLO 205 colon
OVCAR-4 ovarian = system: OVCAR-4 ovarian
K-562 leukemia = system: K-562 leukemia
HS 578T breast = system: HS 578T breast
NCI-H460 lung = system: NCI-H460 lung
A498 renal = system: A498 renal
SK-MEL-28 melanoma = system: SK-MEL-28 melanoma
786-0 renal = system: 786-0 renal
HCT-15 colon = system: HCT-15 colon
UACC-62 melanoma = system: UACC-62 melanoma
HL-60(TB) leukemia = system: HL-60(TB) leukemia
SW-620 colon = system: SW-620 colon
LOX IMVI melanoma = system: LOX IMVI melanoma
MCF7 breast = system: MCF7 breast
PC-3 prostate = system: PC-3 prostate
RPMI-8226 leukemia = system: RPMI-8226 leukemia
EKVX NSCLC = system: EKVX NSCLC
HCT-116 colon = system: HCT-116 colon
ACHN renal = system: ACHN renal
NCI-H226 lung = system: NCI-H226 lung
MOLT-4 leukemia = system: MOLT-4 leukemia
HT29 colon = system: HT29 colon
OVCAR-5 ovarian = system: OVCAR-5 ovarian
A549 NSCLC = system: A549 NSCLC
SNB-19 CNS = system: SNB-19 CNS
MDA-MB-435 = system: MDA-MB-435
RXF 393 renal = system: RXF 393 renal
MDA-N = system: MDA-N
HCC-2998 colon = system: HCC-2998 colon
NCI-H23 lung = system: NCI-H23 lung
MDA-MB-231 breast = system: MDA-MB-231 breast
KM12 colon = system: KM12 colon
CCRF-CEM leukemia = system: CCRF-CEM leukemia
SF-295 CNS = system: SF-295 CNS
SK-MEL-2 melanoma = system: SK-MEL-2 melanoma
SN12C renal = system: SN12C renal
SR leukemia = system: SR leukemia
T-47D breast = system: T-47D breast
M14 melanoma = system: M14 melanoma
NCI-H522 lung = system: NCI-H522 lung
SF-539 CNS = system: SF-539 CNS
OVCAR-8 ovarian = system: OVCAR-8 ovarian
CAKI-1 renal = system: CAKI-1 renal
SNB-75 CNS = system: SNB-75 CNS
HOP-62 NSCLC = system: HOP-62 NSCLC
HOP-92 NSCLC = system: HOP-92 NSCLC

Q: `NC(=O)c1nnsc1NN=O` was tested. Which TGI (U251 CNS) did it give?
A: Its TGI is over 100 µM.

Q: What about the TGI (UO-31 renal) of the same molecule?
A: The TGI was over 100 µM.

Q: And the TGI (SF-268 CNS)?
A: Its TGI is over 100 µM.

Q: What about the TGI (NCI/ADR-RES ovarian) of the same molecule?
A: Its TGI is over 100 µM.

Q: What about the TGI (MALME-3M melanoma) of the same molecule?
A: The TGI was over 100 µM.

Q: And the TGI (UACC-257 melanoma)?
A: Its TGI is over 100 µM.

Q: What about the TGI (IGROV1 ovarian) of the same molecule?
A: Its TGI is over 100 µM.

Q: What about the TGI (SK-MEL-5 melanoma) of the same molecule?
A: The TGI was over 100 µM.

Q: What about the TGI (SK-OV-3 ovarian) of the same molecule?
A: Its TGI is over 100 µM.

Q: What about the TGI (DU-145 prostate) of the same molecule?
A: Its TGI is over 100 µM.

Q: And the TGI (COLO 205 colon)?
A: Its TGI is over 100 µM.

Q: And the TGI (OVCAR-4 ovarian)?
A: The TGI was over 100 µM.

Q: And the TGI (K-562 leukemia)?
A: The TGI was over 100 µM.

Q: And the TGI (HS 578T breast)?
A: The TGI was over 100 µM.

Q: And the TGI (NCI-H460 lung)?
A: Its TGI is over 100 µM.

Q: What about the TGI (A498 renal) of the same molecule?
A: Its TGI is over 100 µM.

Q: And the TGI (SK-MEL-28 melanoma)?
A: The TGI was over 100 µM.

Q: And the TGI (786-0 renal)?
A: Its TGI is over 100 µM.

Q: What about the TGI (HCT-15 colon) of the same molecule?
A: Its TGI is over 100 µM.

Q: What about the TGI (UACC-62 melanoma) of the same molecule?
A: The TGI was over 100 µM.

Q: What about the TGI (HL-60(TB) leukemia) of the same molecule?
A: The TGI was over 100 µM.

Q: What about the TGI (SW-620 colon) of the same molecule?
A: Its TGI is over 100 µM.

Q: And the TGI (LOX IMVI melanoma)?
A: Its TGI is over 100 µM.

Q: What about the TGI (MCF7 breast) of the same molecule?
A: The TGI was over 100 µM.

Q: And the TGI (PC-3 prostate)?
A: The TGI was over 100 µM.

Q: What about the TGI (RPMI-8226 leukemia) of the same molecule?
A: Its TGI is over 100 µM.

Q: And the TGI (EKVX NSCLC)?
A: The TGI was over 100 µM.

Q: What about the TGI (HCT-116 colon) of the same molecule?
A: Its TGI is over 100 µM.

Q: And the TGI (ACHN renal)?
A: Its TGI is over 100 µM.

Q: And the TGI (NCI-H226 lung)?
A: Its TGI is over 100 µM.

Q: What about the TGI (MOLT-4 leukemia) of the same molecule?
A: Its TGI is over 100 µM.

Q: What about the TGI (HT29 colon) of the same molecule?
A: Its TGI is over 100 µM.

Q: And the TGI (OVCAR-5 ovarian)?
A: The TGI was over 100 µM.

Q: And the TGI (A549 NSCLC)?
A: The TGI was over 100 µM.

Q: And the TGI (SNB-19 CNS)?
A: The TGI was over 100 µM.

Q: And the TGI (MDA-MB-435)?
A: The TGI was over 100 µM.

Q: And the TGI (RXF 393 renal)?
A: Its TGI is over 100 µM.

Q: And the TGI (MDA-N)?
A: Its TGI is over 100 µM.

Q: And the TGI (HCC-2998 colon)?
A: The TGI was over 100 µM.

Q: What about the TGI (NCI-H23 lung) of the same molecule?
A: Its TGI is over 100 µM.

Q: And the TGI (MDA-MB-231 breast)?
A: The TGI was over 100 µM.

Q: What about the TGI (KM12 colon) of the same molecule?
A: The TGI was over 100 µM.

Q: And the TGI (CCRF-CEM leukemia)?
A: The TGI was over 100 µM.

Q: And the TGI (SF-295 CNS)?
A: Its TGI is over 100 µM.

Q: And the TGI (SK-MEL-2 melanoma)?
A: Its TGI is over 100 µM.

Q: What about the TGI (SN12C renal) of the same molecule?
A: The TGI was over 100 µM.

Q: What about the TGI (SR leukemia) of the same molecule?
A: Its TGI is over 100 µM.

Q: What about the TGI (T-47D breast) of the same molecule?
A: Its TGI is over 100 µM.

Q: And the TGI (M14 melanoma)?
A: Its TGI is over 100 µM.

Q: What about the TGI (NCI-H522 lung) of the same molecule?
A: Its TGI is over 100 µM.

Q: And the TGI (SF-539 CNS)?
A: Its TGI is over 100 µM.

Q: What about the TGI (OVCAR-8 ovarian) of the same molecule?
A: Its TGI is over 100 µM.

Q: And the TGI (CAKI-1 renal)?
A: The TGI was over 100 µM.

Q: What about the TGI (SNB-75 CNS) of the same molecule?
A: The TGI was over 100 µM.

Q: And the TGI (HOP-62 NSCLC)?
A: Its TGI is over 100 µM.

Q: With `Cc1cccc(/C=N\NC(=S)N2CCCCC2)n1` as the molecule, how does the TGI (HOP-92 NSCLC) read?
A: Its TGI is over 100 µM.

Q: And the TGI (U251 CNS)?
A: The TGI was over 100 µM.

Q: What about the TGI (UO-31 renal) of the same molecule?
A: The TGI was 26.2 µM.

Q: And the TGI (SF-268 CNS)?
A: Its TGI is over 100 µM.

Q: And the TGI (NCI/ADR-RES ovarian)?
A: The TGI was 0.43 µM.

Q: And the TGI (MALME-3M melanoma)?
A: Its TGI is over 100 µM.

Q: What about the TGI (UACC-257 melanoma) of the same molecule?
A: The TGI was 0.0589 µM.

Q: What about the TGI (IGROV1 ovarian) of the same molecule?
A: The TGI was 0.0702 µM.

Q: What about the TGI (SK-MEL-5 melanoma) of the same molecule?
A: Its TGI is 0.187 µM.

Q: And the TGI (SK-OV-3 ovarian)?
A: The TGI was over 100 µM.

Q: And the TGI (DU-145 prostate)?
A: Its TGI is over 100 µM.

Q: And the TGI (COLO 205 colon)?
A: Its TGI is 0.22 µM.

Q: What about the TGI (K-562 leukemia) of the same molecule?
A: The TGI was over 100 µM.

Q: What about the TGI (HS 578T breast) of the same molecule?
A: Its TGI is over 100 µM.

Q: And the TGI (NCI-H460 lung)?
A: The TGI was 0.788 µM.

Q: What about the TGI (A498 renal) of the same molecule?
A: The TGI was 0.347 µM.

Q: And the TGI (SK-MEL-28 melanoma)?
A: The TGI was over 100 µM.

Q: What about the TGI (786-0 renal) of the same molecule?
A: Its TGI is 20.8 µM.

Q: What about the TGI (HCT-15 colon) of the same molecule?
A: The TGI was over 100 µM.

Q: What about the TGI (UACC-62 melanoma) of the same molecule?
A: The TGI was 3.81 µM.

Q: And the TGI (HL-60(TB) leukemia)?
A: The TGI was 0.265 µM.

Q: What about the TGI (SW-620 colon) of the same molecule?
A: The TGI was over 100 µM.

Q: And the TGI (LOX IMVI melanoma)?
A: Its TGI is 41.6 µM.

Q: And the TGI (PC-3 prostate)?
A: The TGI was over 100 µM.

Q: What about the TGI (RPMI-8226 leukemia) of the same molecule?
A: The TGI was 0.502 µM.

Q: And the TGI (EKVX NSCLC)?
A: The TGI was over 100 µM.

Q: And the TGI (HCT-116 colon)?
A: Its TGI is 0.125 µM.

Q: What about the TGI (ACHN renal) of the same molecule?
A: The TGI was 0.863 µM.

Q: And the TGI (NCI-H226 lung)?
A: The TGI was 0.747 µM.

Q: And the TGI (HT29 colon)?
A: Its TGI is over 100 µM.

Q: What about the TGI (OVCAR-5 ovarian) of the same molecule?
A: Its TGI is over 100 µM.

Q: And the TGI (A549 NSCLC)?
A: Its TGI is over 100 µM.

Q: And the TGI (SNB-19 CNS)?
A: The TGI was over 100 µM.

Q: What about the TGI (MDA-MB-435) of the same molecule?
A: The TGI was over 100 µM.

Q: What about the TGI (RXF 393 renal) of the same molecule?
A: Its TGI is 0.593 µM.

Q: What about the TGI (MDA-N) of the same molecule?
A: The TGI was over 100 µM.

Q: And the TGI (HCC-2998 colon)?
A: Its TGI is over 100 µM.

Q: And the TGI (NCI-H23 lung)?
A: The TGI was over 100 µM.

Q: What about the TGI (KM12 colon) of the same molecule?
A: Its TGI is over 100 µM.

Q: What about the TGI (CCRF-CEM leukemia) of the same molecule?
A: Its TGI is 0.225 µM.

Q: What about the TGI (SF-295 CNS) of the same molecule?
A: The TGI was 6.58 µM.

Q: What about the TGI (SK-MEL-2 melanoma) of the same molecule?
A: Its TGI is over 100 µM.

Q: What about the TGI (SN12C renal) of the same molecule?
A: Its TGI is 9.38 µM.

Q: What about the TGI (SR leukemia) of the same molecule?
A: The TGI was 0.123 µM.

Q: And the TGI (T-47D breast)?
A: Its TGI is over 100 µM.

Q: And the TGI (M14 melanoma)?
A: The TGI was 0.406 µM.

Q: And the TGI (NCI-H522 lung)?
A: The TGI was over 100 µM.

Q: And the TGI (OVCAR-8 ovarian)?
A: Its TGI is 0.582 µM.

Q: What about the TGI (CAKI-1 renal) of the same molecule?
A: The TGI was 3.62 µM.

Q: And the TGI (SNB-75 CNS)?
A: The TGI was 9.32 µM.

Q: And the TGI (HOP-62 NSCLC)?
A: The TGI was 0.525 µM.

Source: PubChem BioAssay (NCI)
